Assay results taken from the supplement of paper PMC11208160.

test: recombinant barcode read abundance after kanamycin selection (control-corrected) (log10(CPM+1)); higher = more efficient recombination; sequences stand for … in AGTGCAGAGAAAATCGGCCAGTTTTCTCTGCCTGCAGTCCGCATGCCGT…AGATTTATGCAGCGGACTGCCTTTCTCCCAAAGTGATAAACCGGACAGTATCATGGACCGGTTTTCCCGGTAATCCGTATTTGCAAGGTTGGTTTCACT; site = the 11-nt target
Summary of the method: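 Reported as log10(CPM+1), each value stands for recombination efficiency. That efficiency is the averaged, control-corrected counts per million of barcodes found at recombinant junctions. Cells from a pooled E. coli library pairing targets with IS621 bridge RNA target-binding loops were plated twice on chloramphenicol/ampicillin LB agar (control) and twice on chloramphenicol/ampicillin/kanamycin with 0.1 mM IPTG.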
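Further: IS621 recombinase and bridge RNA in Escherichia coli cells.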

| Sequence | recombinant barcode read abundance (log10) |
| --- | --- |
| TTCTGTGCTTGGGTTCTAACCTGTTGCCT (site TTCTGAGCTAG) | 0.0672 |
| TTCTGTGCTTGGGTTCTAACCTGTTGCCT (site TTCTGCGCTAG) | 0.0701 |
| TTCTGTGCTTGGGTTCTAACCTGTTGCCT (site TTCTGGGCTAG) | 0.0555 |
| TTCTGTGCTTGGGTTCTAACCTGTTGCCT (site TTCTGTGCTAG) | 0.0428 |
| TTGAAATCTTGGGTTCTAACCTGTTGCCT (site TTGAAATCTAG) | 0.131 |
| TTGAAATCTTGGGTTCTAACCTGTTGCCT (site TTGACATCTAG) | 0.0533 |
| TTGAAATCTTGGGTTCTAACCTGTTGCCT (site TTGAGATCTAG) | 0.0296 |
| TTGAAATCTTGGGTTCTAACCTGTTGCCT (site TTGATATCTAG) | 0.0563 |
| TTGAACTCTTGGGTTCTAACCTGTTGCCT (site TTGAACTCTAG) | 1.18 |
| TTGAACTCTTGGGTTCTAACCTGTTGCCT (site TTGAGCTCTAG) | 0.0203 |
| TTGAATCCTTGGGTTCTAACCTGTTGCCA (site TTGAATCCTTG) | 0.71 |
| TTGAATCCTTGGGTTCTAACCTGTTGCCA (site TTGAGTCCTTA) | 0.0534 |
| TTGACATCTTGGGTTCTAACCTGTTGCCT (site TTGAAATCTAG) | 0.179 |
| TTGACATCTTGGGTTCTAACCTGTTGCCT (site TTGACATCTAG) | 0.216 |
| TTGACATCTTGGGTTCTAACCTGTTGCCT (site TTGAGATCTAG) | 0.0391 |
| TTGACATCTTGGGTTCTAACCTGTTGCCT (site TTGATATCTAG) | 0.147 |
| TTGACGACTTGGGTTCTAACCTGTTGCCG (site CACCGAGCTTA) | 0.149 |
| TTGACGACTTGGGTTCTAACCTGTTGCCG (site TTGACGACTCG) | 0.452 |
| TTGAGATCTTGGGTTCTAACCTGTTGCCT (site TTGAAATCTAG) | 0.0577 |
| TTGAGATCTTGGGTTCTAACCTGTTGCCT (site TTGACATCTAG) | 0 |

| Sequence | recombinant barcode read abundance (log10) |
| --- | --- |
| TTGAGATCTTGGGTTCTAACCTGTTGCCT (site TTGAGATCTAG) | 0.0355 |
| TTGAGATCTTGGGTTCTAACCTGTTGCCT (site TTGATATCTAG) | 0.264 |
| TTGAGCTCTTGGGTTCTAACCTGTTGCCT (site TTGAACTCTAG) | 0.0507 |
| TTGAGCTCTTGGGTTCTAACCTGTTGCCT (site TTGAGCTCTAG) | 0.952 |
| TTGAGGACTTGGGTTCTAACCTGTTGCCA (site TTGAGGACTAC) | 1.14 |
| TTGAGGACTTGGGTTCTAACCTGTTGCCA (site TTGAGGACTTG) | 0.943 |
| TTGAGTACTTGGGTTCTAACCTGTTGCCG (site TTGAGTACTCG) | 0.577 |
| TTGAGTACTTGGGTTCTAACCTGTTGCCG (site TTGATTACTTG) | 0.0556 |
| TTGAGTCCTTGGGTTCTAACCTGTTGCTA (site TTGAATCCTTG) | 0.037 |
| TTGAGTCCTTGGGTTCTAACCTGTTGCTA (site TTGAGTCCTTA) | 0.488 |
| TTGCATCCTTGGGTTCTAACCTGTTGCAG (site CGTTGGTCTTC) | 0.0529 |
| TTGCATCCTTGGGTTCTAACCTGTTGCAG (site TTGCATCCTCT) | 0.802 |
| TTGCCAACTTGGGTTCTAACCTGTTGCCT (site TTGCAAACTAG) | 0.146 |
| TTGCCAACTTGGGTTCTAACCTGTTGCCT (site TTGCCAACTAG) | 0.332 |
| TTGCCAACTTGGGTTCTAACCTGTTGCCT (site TTGCGAACTAG) | 0.0564 |
| TTGCCAACTTGGGTTCTAACCTGTTGCCT (site TTGCTAACTAG) | 0.00831 |
| TTGCCGACTTGGGTTCTAACCTGTTGCCT (site TTGCCGACTAG) | 0.716 |
| TTGCCGACTTGGGTTCTAACCTGTTGCCT (site TTGCCTACTAG) | 0 |
| TTGCCTACTTGGGTTCTAACCTGTTGCCT (site TTGCCGACTAG) | 0.0577 |
| TTGCCTACTTGGGTTCTAACCTGTTGCCT (site TTGCCTACTAG) | 0.339 |

| Sequence | recombinant barcode read abundance (log10) |
| --- | --- |
| TTGCGAGCTTGGGTTCTAACCTGTTGCAT (site TTGCGAGCTAT) | 1.82 |
| TTGCGAGCTTGGGTTCTAACCTGTTGCAT (site TTGCGTGCTAA) | 0.0906 |
| TTGGATCCTTGGGTTCTAACCTGTTGCTT (site TTGGATCCTAA) | 1.87 |
| TTGGATCCTTGGGTTCTAACCTGTTGCTT (site TTGGATCCTAG) | 1.85 |
| TTGGGCACTTGGGTTCTAACCTGTTGCCT (site TTGGACACTAG) | 0.196 |
| TTGGGCACTTGGGTTCTAACCTGTTGCCT (site TTGGCCACTAG) | 0.176 |
| TTGGGCACTTGGGTTCTAACCTGTTGCCT (site TTGGGCACTAG) | 0.0687 |
| TTGGGCACTTGGGTTCTAACCTGTTGCCT (site TTGGTCACTAG) | 0.103 |
| TTGGGTGCTTGGGTTCTAACCTGTTGCAT (site TAGGCTGCTAT) | 0.16 |
| TTGGGTGCTTGGGTTCTAACCTGTTGCAT (site TTGGGTGCTAT) | 1.3 |
| TTGGGTTCTTGGGTTCTAACCTGTTGCCT (site TTGGGTGCTCG) | 0.0625 |
| TTGGGTTCTTGGGTTCTAACCTGTTGCCT (site TTGGGTTCTAG) | 0.767 |
| TTGTACACTTGGGTTCTAACCTGTTGCTC (site CAACTAGCTAT) | 0.043 |
| TTGTACACTTGGGTTCTAACCTGTTGCTC (site TTGTACACTGA) | 1.06 |
| TTGTACTCTTGGGTTCTAACCTGTTGCTT (site TTGTACTCTAA) | 0.453 |
| TTGTACTCTTGGGTTCTAACCTGTTGCTT (site TTGTGTTCTAA) | 0.0725 |
| TTGTATTCTTGGGTTCTAACCTGTTGCCT (site TTGAATTCTAA) | 0.0409 |
| TTGTATTCTTGGGTTCTAACCTGTTGCCT (site TTGTATTCTAG) | 0.679 |
| TTGTCGACTTGGGTTCTAACCTGTTGCCA (site TTGACGACTTG) | 0.105 |
